From PubChem BioAssay (NCI)
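Following 48 hours of exposure in 96-well plates, responses at five concentrations were used to interpolate endpoints linearly. GI50 is the concentration that inhibits growth by half. Definition used: TGI = concentration required for complete inhibition of growth.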

Tests used:
Test in all cases: NCI anticancer screen, dose series, 48 h
[1] = tested on: M14 melanoma
[2] = tested on: 786-0 renal
[3] = tested on: ACHN renal
[4] = tested on: UACC-62 melanoma
[5] = tested on: NCI/ADR-RES ovarian
[6] = tested on: NCI-H226 lung
[7] = tested on: SN12C renal
[8] = tested on: DU-145 prostate
[9] = tested on: SK-OV-3 ovarian
[10] = tested on: U251 CNS
[11] = tested on: SK-MEL-28 melanoma
[12] = tested on: UACC-257 melanoma
[13] = tested on: NCI-H522 lung
[14] = tested on: MDA-MB-435
[15] = tested on: OVCAR-5 ovarian
[16] = tested on: A498 renal
[17] = tested on: NCI-H23 lung
[18] = tested on: HOP-92 NSCLC
[19] = tested on: SF-268 CNS
[20] = tested on: CCRF-CEM leukemia
[21] = tested on: HCT-116 colon
[22] = tested on: SNB-19 CNS
[23] = tested on: SF-295 CNS
[24] = tested on: K-562 leukemia
[25] = tested on: LOX IMVI melanoma
[26] = tested on: SNB-75 CNS
[27] = tested on: SW-620 colon
[28] = tested on: HCT-15 colon
[29] = tested on: BT-549 breast
[30] = tested on: TK-10 renal
[31] = tested on: MALME-3M melanoma
[32] = tested on: A549 NSCLC
[33] = tested on: NCI-H460 lung
[34] = tested on: HCC-2998 colon
[35] = tested on: RXF 393 renal
[36] = tested on: IGROV1 ovarian
[37] = tested on: RPMI-8226 leukemia
[38] = tested on: UO-31 renal
[39] = tested on: SF-539 CNS
[40] = tested on: HL-60(TB) leukemia
[41] = tested on: T-47D breast
[42] = tested on: HT29 colon
[43] = tested on: OVCAR-4 ovarian
[44] = tested on: MDA-MB-231 breast
[45] = tested on: COLO 205 colon
[46] = tested on: PC-3 prostate
[47] = tested on: HOP-62 NSCLC
[48] = tested on: OVCAR-8 ovarian
[49] = tested on: MOLT-4 leukemia
[50] = tested on: MCF7 breast
[51] = tested on: SK-MEL-5 melanoma
[52] = tested on: CAKI-1 renal
[53] = tested on: KM12 colon
[54] = tested on: SK-MEL-2 melanoma
[55] = tested on: OVCAR-3 ovarian
[56] = tested on: HS 578T breast
[57] = tested on: SR leukemia

## COc1ccc([I+]c2ccccc2)cc1
[1]
  GI50: 9.09 µM
  TGI: > 100 µM
[2]
  GI50: 16.4 µM
  TGI: > 100 µM
[3]
  GI50: 42.7 µM
  TGI: > 100 µM
[4]
  GI50: 37.2 µM
  TGI: > 100 µM
[5]
  GI50: > 100 µM
  TGI: > 100 µM
[6]
  GI50: 12.2 µM
  TGI: > 100 µM
[7]
  GI50: 40.3 µM
  TGI: > 100 µM
[8]
  GI50: 23 µM
  TGI: > 100 µM
[9]
  GI50: 50.2 µM
  TGI: > 100 µM
[10]
  GI50: 7.94 µM
  TGI: > 100 µM
[11]
  GI50: 25.9 µM
  TGI: > 100 µM
[12]
  GI50: 8.81 µM
  TGI: > 100 µM
[13]
  GI50: 24.5 µM
  TGI: > 100 µM
[14]
  GI50: 10.1 µM
  TGI: > 100 µM
[15]
  GI50: > 100 µM
  TGI: > 100 µM
[16]
  GI50: 1.9 µM
  TGI: > 93.2 µM
[17]
  GI50: 3.75 µM
  TGI: > 100 µM
[18]
  GI50: 6.55 µM
  TGI: 81.9 µM
[19]
  GI50: 6.3 µM
  TGI: > 100 µM
[20]
  GI50: 2.86 µM
  TGI: > 100 µM
[21]
  GI50: 0.735 µM
  TGI: > 100 µM
[22]
  GI50: 11.3 µM
  TGI: > 100 µM
[23]
  GI50: 7.17 µM
  TGI: 78.2 µM
[24]
  GI50: 1.45 µM
  TGI: > 100 µM
[25]
  GI50: 3.47 µM
  TGI: > 100 µM
[26]
  GI50: 14 µM
  TGI: > 100 µM
[27]
  GI50: 3.37 µM
  TGI: > 100 µM
[28]
  GI50: 42.1 µM
  TGI: > 100 µM
[29]
  GI50: 4.12 µM
  TGI: > 78.8 µM
[30]
  GI50: 17.4 µM
  TGI: > 100 µM
[31]
  GI50: 7.8 µM
  TGI: > 100 µM
[32]
  GI50: 4.38 µM
  TGI: > 100 µM
[33]
  GI50: 5.17 µM
  TGI: > 100 µM
[34]
  GI50: 10 µM
  TGI: > 100 µM
[35]
  GI50: 13.9 µM
  TGI: > 100 µM
[36]
  GI50: 8.99 µM
  TGI: > 100 µM
[37]
  GI50: 2.04 µM
  TGI: > 78.1 µM
[38]
  GI50: 26.8 µM
  TGI: > 100 µM
[39]
  GI50: 6.77 µM
  TGI: > 100 µM
[40]
  GI50: 5.22 µM
  TGI: > 95.1 µM
[41]
  GI50: 9.22 µM
  TGI: > 100 µM
[42]
  GI50: 4.22 µM
  TGI: > 100 µM
[43]
  GI50: 1.34 µM
  TGI: > 100 µM
[44]
  GI50: > 78.2 µM
  TGI: > 100 µM
[45]
  GI50: 5.95 µM
  TGI: > 100 µM
[46]
  GI50: 9.07 µM
  TGI: > 100 µM
[47]
  GI50: 2.91 µM
  TGI: 79.2 µM
[48]
  GI50: 1.37 µM
  TGI: > 100 µM
[49]
  GI50: 7.59 µM
  TGI: > 100 µM
[50]
  GI50: 5.69 µM
  TGI: > 100 µM
[51]
  GI50: 2.61 µM
  TGI: 11.5 µM
[52]
  GI50: 12.5 µM
  TGI: > 100 µM
[53]
  GI50: 4.27 µM
  TGI: > 100 µM
[54]
  GI50: 51.4 µM
  TGI: > 100 µM
[55]
  GI50: 8.86 µM
  TGI: > 100 µM
[56]
  GI50: 15.9 µM
  TGI: > 100 µM
[57]
  GI50: 1.78 µM
  TGI: > 100 µM
